Patent publication US10822327B2, “2-substituted aromatic ring-pyrimidine derivative and preparation and application thereof” (ZHEJIANG UNIVERSITY, priority 2016, dated 2020)

Key:
[1] = target: T1, Chk1 protein kinase (Homo sapiens, UniProt O14757); test: Chk1 enzyme inhibitory activity, ADP-Glo kit; format: biochemical; settings: bounds, unit μM
T1 sequence (O14757 1-476): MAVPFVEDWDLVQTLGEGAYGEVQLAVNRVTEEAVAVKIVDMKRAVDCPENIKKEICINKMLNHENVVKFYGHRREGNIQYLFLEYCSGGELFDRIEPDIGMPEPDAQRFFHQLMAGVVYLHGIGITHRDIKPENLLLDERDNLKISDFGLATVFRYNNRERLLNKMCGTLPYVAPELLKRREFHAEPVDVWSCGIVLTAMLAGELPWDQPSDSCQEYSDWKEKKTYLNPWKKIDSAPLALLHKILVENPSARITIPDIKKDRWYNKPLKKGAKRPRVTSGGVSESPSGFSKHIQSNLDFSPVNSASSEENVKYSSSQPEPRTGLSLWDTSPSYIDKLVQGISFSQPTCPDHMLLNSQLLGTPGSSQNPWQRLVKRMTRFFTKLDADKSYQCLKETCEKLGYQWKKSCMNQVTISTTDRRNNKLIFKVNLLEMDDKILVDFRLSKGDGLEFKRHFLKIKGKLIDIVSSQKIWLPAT
Procedure: Saurosporine is used as a positive control, the Chk1 enzyme inhibitory activity (IC50) was evaluated using the ADP-Glo kit. […] The phosphorylation process consumes ATP. After the reaction, ADP-Glo™ Reagent consumes the remaining ATP, wherein ADP produced during the reaction can be transformed to ATP by ADP-Glo Detection Reagent. ATP acts as a substrate for the Ultra-Glo™ luciferase catalytic reaction, producing an optical signal. The test compound was dissolved in DMSO to prepare a 10 mM stock solution and diluted to 12 different concentrations in a certain ratio for testing. 1 μL of the test compound and 2 μL of 2.5× Chk1 kinase were added to each well of a 384-well plate, and 2 μL of 1× buffer was added to the control group. After incubation for 10 min at room temperature, 2 μL of 2.5× substrate was added. Ater incubation for 1 h at 37° C., 5 μL. of ADP-Glo™ Reagent was added and the reaction was stopped before incubating again for 1 h at 37° C. 10 μL of ADP-Glo Detection Reagent was added before incubating for 30 min at 37° C., and three parallel wells were set for each sample. […] by luminescence fluorescence microplate reader, and data were calculated using GraphPad Prism 5 software to calculate IC50 values.

[2] = tested on: human multiple myeloma cells RPMI 8226; test: MTS in vitro proliferation inhibition, RPMI 8226; format: cell-based; settings: 72 hours, average of three experiments, read-out: IC50(μM) RPMI8226
Excerpt: (§1) Cell lines: human multiple myeloma cells RPMI 8226, human mantle cell lymphoma cells Mino, Jeko-1, human lymphoma cells Romas, human acute monocytic leukemia cells MV-4-11, human breast cancer cells MCF-7 Human lung cancer cell A549, human prostate cancer cell LnCAP, human gastric cancer cell BGC-823, human colon cancer cell HCT116, Colo205, and human ovarian cancer cell OVCAR-8. Experimental method: using MTS method for in vitro proliferation Inhibitory activity (IC50) of compounds against different tumor cell lines.
(§2) The cells in the logarithmic growth phase were trypsinized, counted, and seeded at a density of 1×10^4 cells/well in a 96-well plate at 100 μL per well before placing in a 37° C. incubator containing 5% CO2 overnight. Six concentration gradients were set for each compound, and three sets of duplicate wells were set for each concentration. After the addition, the cells were cultured for 72 hours, and 20 μL of MTS was added. After incubating for 2 hours at 37° C., the absorbance at 490 nm (L1) was measured with a SpectraMAX 340 microplate reader. The reference wavelength was 690 nm (L2), and the (L1-L2) value was plotted against the different concentrations of the inhibitor. The half inhibitory concentration IC50 was fitted by the formula.

[3] = tested on: human mantle cell lymphoma cells Mino; test: MTS in vitro proliferation inhibition, Mino; format: cell-based; settings: 72 hours, average of three experiments
Excerpt: as §1, §2

[4] = tested on: human lymphoma cells Romas; test: MTS in vitro proliferation inhibition, Romas; format: cell-based; settings: 72 hours, average of three experiments
Excerpt: as §1, §2

[5] = tested on: human mantle cell lymphoma cells Jeko-1; test: MTS in vitro proliferation inhibition, Jeko-1; format: cell-based; settings: 72 hours, average of three experiments
Excerpt: as §1, §2

[6] = tested on: human acute monocytic leukemia cells MV-4-11; test: MTS in vitro proliferation inhibition, MV-4-11; format: cell-based; settings: MV4-11, 72 hours, average of three experiments
Excerpt: as §1, §2

[7] = tested on: human breast cancer cells MCF-7; test: MTS in vitro proliferation inhibition, MCF-7; format: cell-based; settings: MCF7, 72 hours, average of three experiments
Excerpt: as §1, §2

[8] = tested on: Human lung cancer cell A549; test: MTS in vitro proliferation inhibition, A549; format: cell-based; settings: 72 hours, average of three experiments
Excerpt: as §1, §2

[9] = tested on: human prostate cancer cell LnCAP; test: MTS in vitro proliferation inhibition, LnCAP; format: cell-based; settings: 72 hours, average of three experiments
Excerpt: as §1, §2

[10] = tested on: human gastric cancer cell BGC-823; test: MTS in vitro proliferation inhibition, BGC-823; format: cell-based; settings: 72 hours, average of three experiments
Excerpt: as §1, §2

[11] = tested on: human colon cancer cell HCT116; test: MTS in vitro proliferation inhibition, HCT116; format: cell-based; settings: HCT-116, 72 hours, average of three experiments
Excerpt: as §1, §2

[12] = tested on: human ovarian cancer cell OVCAR-8; test: MTS in vitro proliferation inhibition, OVCAR-8; format: cell-based; settings: 72 hours, average of three experiments
Excerpt: as §1, §2

[13] = tested on: human colon cancer cell Colo205; test: MTS in vitro proliferation inhibition, Colo205; format: cell-based; settings: COLO 205, 72 hours, average of three experiments
Excerpt: as §1, §2

SMILES: Cc1cc(Nc2ncc(-c3cnn(C)c3)c(NC3CCNCC3)n2)n[nH]1 [Compound 1, 5-(1-methyl-1H-pyrazol-4-yl)-N^2-(3-methylpyrazol-5-yl)-N^4-(piperidin-4-yl)-2,4-diaminopyrimidine]
- IC50 [1]: > 10 µM

SMILES: Cc1cc(Nc2ncc(-c3cnn(C)c3)c(NC3CCNCC3)n2)no1 [Compound 2, 5-(1-methyl-1H-pyrazol-4-yl)-N^2-(5-methyloxazol-3-yl)-N^4-(piperidin-4-yl)-2,4-diaminopyrimidine]
- IC50 [1]: > 10 µM

SMILES: Cc1cc(Nc2ncc(-c3cccs3)c(NC3CCNCC3)n2)n[nH]1 [Compound 3, 5-(thien-2-yl)-N^2-(5-methylpyrazol-3-yl)-N^4-(piperidin-4-yl)-2,4-diaminopyrimidine]
- IC50 [1]: > 10 µM

SMILES: Cc1cc(Nc2ncc(-c3cccs3)c(NC3CCNCC3)n2)no1 [Compound 4, 5-(thien-2-yl)-N^2-(5-methyloxazol-3-yl)-N^4-(piperidin-4-yl)-2,4-diaminopyrimidine]
- IC50 [1]: > 10 µM

SMILES: Cc1cc(Nc2ncc(-c3ccco3)c(NC3CCNCC3)n2)n[nH]1 [Compound 5, 5-(furan-2-yl)-N^2-(5-methylpyrazol-3-yl)-N^4-(piperidin-4-yl)-2,4-diaminopyrimidine]
- IC50 [1]: > 10 µM

SMILES: Cc1cc(Nc2ncc(-c3ccco3)c(NC3CCNCC3)n2)no1 [Compound 6, 5-(furan-2-yl)-N^2-(5-methyloxazol-3-yl)-N^4-(piperidin-4-yl)-2,4-diaminopyrimidine]
- IC50 [1]: > 10 µM

SMILES: N#Cc1ccc(Nc2ncc(-c3ccco3)c(NC3CCNCC3)n2)cn1 [Compound 17, 5-(furan-2-yl)-N^2-(2-cyanopyridin-5-yl)-N^4-(piperidin-4-yl)-2,4-diaminopyrimidine]
- IC50 [2]: 3.34 µM
- IC50 [3]: 0.708 µM
- IC50 [4]: 0.536 µM
- IC50 [5]: 0.342 µM
- IC50 [6]: 0.044 µM
- IC50 [7]: 1.8 µM
- IC50 [8]: 0.774 µM
- IC50 [9]: 1.44 µM
- IC50 [10]: 3.17 µM
- IC50 [11]: 2.68 µM
- IC50 [12]: 4.71 µM
- IC50 [13]: 2.77 µM

SMILES: Cn1cc(-c2cnc(Nc3ccc(C#N)nc3)nc2N[C@H]2CCCNC2)cn1 [Compound 21, (S)-5-(1-methyl-1H-pyrazol-4-yl)-N^2-(2-cyanopyridin-5-yl)-N^4-(piperidin-3-yl)-2,4-diaminopyrimidine]
- IC50 [2]: 3.6 µM
- IC50 [3]: 0.608 µM
- IC50 [4]: 0.401 µM
- IC50 [5]: 0.253 µM
- IC50 [6]: 0.035 µM
- IC50 [7]: 2.56 µM
- IC50 [8]: 1.02 µM
- IC50 [9]: 0.842 µM
- IC50 [10]: 2.11 µM
- IC50 [11]: 1.39 µM
- IC50 [12]: 3.24 µM
- IC50 [13]: 1.54 µM

SMILES: Cn1cc(-c2cnc(Nc3ccc(C#N)cn3)nc2NC2CCNCC2)cn1 [Compound 26, 5-(1-methyl-1H-pyrazol-4-yl)-N^2-(3-cyanopyridin-6-yl)-N^4-(piperidin-4-yl)-2,4-diaminopyrimidine]
- IC50 [1]: > 10 µM

SMILES: Cn1cc(-c2cnc(Nc3cnc(C#N)cn3)nc2NC2CCNCC2)cn1 [Compound 27, 5-(1-methyl-1H-pyrazol-4-yl)-N^2-(2-cyanopyrazin-5-yl)-N^4-(piperidin-4-yl)-2,4-diaminopyrimidine]
- IC50 [1]: > 10 µM

SMILES: N#Cc1ccc(Nc2ncc(Br)cn2)cn1 [Compound 30, 5-bromo-N-(2-cyanopyridin-5-yl)-2-aminopyrimidine]
- IC50 [1]: > 10 µM

SMILES: N#Cc1ccc(Nc2ncc(-c3ccccc3N)cn2)cn1 [Compound 31, 5-(2-aminophenyl)-N-(2-cyanopyridin-5-yl)-2-aminopyrimidine]
- IC50 [1]: > 10 µM

SMILES: N#Cc1ccc(Nc2ncc(-c3ccccc3NCC3CCNCC3)cn2)cn1 [Compound 33, 5-(2-(piperidin-4-methyl)aminophenyl)-N-(2-cyanopyridin-5-yl)-2-aminopyrimidine]
- IC50 [1]: > 10 µM

SMILES: N#Cc1ccc(Nc2ncc(C(F)(F)F)c(NCC3CCNCC3)n2)cn1 [Compound 34, 5-trifluoromethyl-N^2-(2-cyanopyridin-5-yl)-N^4-(piperidin-4-methyl)-2,4-diaminopyrimidine]
- IC50 [1]: < 1 µM

SMILES: N#Cc1ccc(Nc2ncc(C(F)(F)F)c(NC3CCNCC3)n2)cn1 [Compound 35, 5-trifluoromethyl-N^2-(2-cyanopyridin-5-yl)-N^4-(piperidin-4-yl)-2,4-diaminopyrimidine]
- IC50 [1]: < 1 µM

SMILES: N#Cc1ccc(Nc2ncc(C(F)(F)F)c(N[C@@H]3CCCNC3)n2)cn1 [Compound 36, (R)-5-trifluoromethyl-N^2-(2-cyanopyridin-5-yl)-N^4-(piperidin-3-yl)-2,4-diaminopyrimidine]
- IC50 [1]: < 1 µM
